Calls of active or inactive are those of the source.
Key:
[1] = molecular target: Nuclear factor NF-kappa-B complex (Homo sapiens) (UniProt Q00653+P19838+Q04206); experiment: Inhibition of cisplatin-induced NF-kappaB activation in HUVEC cell nuclear extract assessed as reduction in NF-kappaB-DNA binding activity at 100 uM incubated for 1 hr by electrophoretic mobility shift assay; assay type: subcellular; conditions: Nucleus
[2] = molecular target: T1, NF-kappa-B inhibitor alpha (Homo sapiens) (UniProt P25963); experiment: Inhibition of cisplatin-induced phosphorylation of IkappaBalpha at Ser32/36 residue in HUVEC cells at 100 uM incubated for 1 hr by Western blot analysis; assay type: cell-based
T1 sequence (whole entry): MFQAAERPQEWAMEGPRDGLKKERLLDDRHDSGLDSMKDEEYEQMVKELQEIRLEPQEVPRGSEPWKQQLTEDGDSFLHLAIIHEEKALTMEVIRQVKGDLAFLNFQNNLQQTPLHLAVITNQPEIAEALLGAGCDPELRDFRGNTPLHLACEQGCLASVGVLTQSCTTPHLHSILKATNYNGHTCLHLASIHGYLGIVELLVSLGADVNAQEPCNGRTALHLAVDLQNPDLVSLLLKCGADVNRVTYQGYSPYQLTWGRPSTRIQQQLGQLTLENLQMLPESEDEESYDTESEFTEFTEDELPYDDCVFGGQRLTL

[3] = molecular target: Transcription factor p65 (Homo sapiens) (UniProt Q04206); experiment: Inhibition of cisplatin-induced phosphorylation of p65 subunit at Ser536 residue in HUVEC cells at 100 uM incubated for 1 hr by Western blot analysis; assay type: cell-based
[4] = test system: HUVEC; experiment: Inhibition of cisplatin-induced PKCalpha translocation in HUVEC cells at 100 uM incubated for 15 mins in presence of cisplatin by Western blot analysis; assay type: functional, cell-based; conditions: Homo sapiens
[5] = test system: HUVEC; experiment: Inhibition of cisplatin-induced TRPC1 phosphorylation in [32P] orthophosphate labeled HUVEC cells at 100 uM incubated for 15 mins in presence of cisplatin by Western blot analysis; assay type: cell-based; conditions: Homo sapiens
[6] = test system: HUVEC; experiment: Inhibition of cisplatin-induced store operated Ca2+ release in HUVEC cells at 100 uM preincubated with compound followed by cisplatin stimulation by Fura-2 AM staining based calcium influx assay; assay type: functional, cell-based; conditions: Homo sapiens
[7] = test system: HUVEC; experiment: Improvement in cisplatin-induced endothelial monolayer integrity in HUVEC cells assessed as increase in transendothelial electric resistance at 100 uM preincubated with compound followed by cisplatin stimulation and measured after 45 mins; assay type: functional, cell-based; conditions: Homo sapiens
[8] = test system: HUVEC; experiment: Inhibition of cisplatin-induced TRPC1 phosphorylation in [32P] orthophosphate labeled HUVEC cells at […] incubated for 15 mins in presence of cisplatin by Western blot analysis; assay type: cell-based; conditions: Homo sapiens

Chain of Nuclear factor NF-kappa-B complex (Homo sapiens) (P19838 whole entry, looked up): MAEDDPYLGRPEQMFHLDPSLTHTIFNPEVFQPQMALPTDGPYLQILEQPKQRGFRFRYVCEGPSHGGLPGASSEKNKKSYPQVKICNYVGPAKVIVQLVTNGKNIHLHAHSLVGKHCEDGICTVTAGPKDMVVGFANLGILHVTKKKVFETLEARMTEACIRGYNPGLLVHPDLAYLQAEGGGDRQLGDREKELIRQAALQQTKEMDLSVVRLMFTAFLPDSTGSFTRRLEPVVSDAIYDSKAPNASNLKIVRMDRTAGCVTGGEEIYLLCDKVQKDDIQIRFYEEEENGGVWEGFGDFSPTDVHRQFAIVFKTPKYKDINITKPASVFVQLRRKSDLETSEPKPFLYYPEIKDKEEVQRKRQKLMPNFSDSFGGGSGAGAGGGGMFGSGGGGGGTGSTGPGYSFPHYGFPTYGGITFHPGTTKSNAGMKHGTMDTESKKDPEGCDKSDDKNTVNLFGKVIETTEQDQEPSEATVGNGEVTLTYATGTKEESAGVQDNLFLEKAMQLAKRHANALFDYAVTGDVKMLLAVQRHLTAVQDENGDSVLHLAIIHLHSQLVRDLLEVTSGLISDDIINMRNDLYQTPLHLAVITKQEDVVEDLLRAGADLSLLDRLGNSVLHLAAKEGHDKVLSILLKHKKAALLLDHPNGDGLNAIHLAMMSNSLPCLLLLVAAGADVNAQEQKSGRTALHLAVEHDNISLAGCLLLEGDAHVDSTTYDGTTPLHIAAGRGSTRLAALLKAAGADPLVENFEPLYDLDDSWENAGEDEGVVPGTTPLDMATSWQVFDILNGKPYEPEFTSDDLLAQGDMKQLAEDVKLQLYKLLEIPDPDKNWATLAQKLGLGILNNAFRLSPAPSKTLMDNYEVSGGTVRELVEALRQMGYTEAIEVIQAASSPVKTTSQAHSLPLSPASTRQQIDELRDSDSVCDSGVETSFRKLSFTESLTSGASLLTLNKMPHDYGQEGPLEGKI
Chain of Nuclear factor NF-kappa-B complex (Homo sapiens) (Q00653 whole entry, looked up): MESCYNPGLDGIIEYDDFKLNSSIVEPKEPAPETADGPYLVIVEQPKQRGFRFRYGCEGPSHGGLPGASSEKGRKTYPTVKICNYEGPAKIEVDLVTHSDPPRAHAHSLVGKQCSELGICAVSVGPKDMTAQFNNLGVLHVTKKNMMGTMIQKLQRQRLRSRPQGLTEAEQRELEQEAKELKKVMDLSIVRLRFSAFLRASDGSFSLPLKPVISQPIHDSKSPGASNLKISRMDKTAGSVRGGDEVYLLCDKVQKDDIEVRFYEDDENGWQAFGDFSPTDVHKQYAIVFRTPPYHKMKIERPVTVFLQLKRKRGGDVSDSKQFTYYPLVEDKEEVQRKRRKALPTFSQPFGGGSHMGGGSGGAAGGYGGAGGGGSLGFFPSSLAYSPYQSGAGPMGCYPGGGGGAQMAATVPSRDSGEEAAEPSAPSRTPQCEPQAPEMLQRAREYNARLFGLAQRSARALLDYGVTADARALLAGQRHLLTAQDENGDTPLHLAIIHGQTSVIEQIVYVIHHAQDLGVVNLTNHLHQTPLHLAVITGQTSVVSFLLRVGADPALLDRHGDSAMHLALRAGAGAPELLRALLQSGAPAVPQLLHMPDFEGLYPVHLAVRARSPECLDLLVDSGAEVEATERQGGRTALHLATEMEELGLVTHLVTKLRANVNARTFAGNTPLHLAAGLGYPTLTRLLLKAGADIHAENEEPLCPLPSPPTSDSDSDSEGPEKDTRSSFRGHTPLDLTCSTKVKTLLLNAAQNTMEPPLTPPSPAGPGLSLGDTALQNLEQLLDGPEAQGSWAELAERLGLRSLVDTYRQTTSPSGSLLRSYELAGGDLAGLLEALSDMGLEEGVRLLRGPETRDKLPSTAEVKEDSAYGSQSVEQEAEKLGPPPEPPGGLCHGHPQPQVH
Chain of Nuclear factor NF-kappa-B complex (Homo sapiens) (Q04206 whole entry, looked up): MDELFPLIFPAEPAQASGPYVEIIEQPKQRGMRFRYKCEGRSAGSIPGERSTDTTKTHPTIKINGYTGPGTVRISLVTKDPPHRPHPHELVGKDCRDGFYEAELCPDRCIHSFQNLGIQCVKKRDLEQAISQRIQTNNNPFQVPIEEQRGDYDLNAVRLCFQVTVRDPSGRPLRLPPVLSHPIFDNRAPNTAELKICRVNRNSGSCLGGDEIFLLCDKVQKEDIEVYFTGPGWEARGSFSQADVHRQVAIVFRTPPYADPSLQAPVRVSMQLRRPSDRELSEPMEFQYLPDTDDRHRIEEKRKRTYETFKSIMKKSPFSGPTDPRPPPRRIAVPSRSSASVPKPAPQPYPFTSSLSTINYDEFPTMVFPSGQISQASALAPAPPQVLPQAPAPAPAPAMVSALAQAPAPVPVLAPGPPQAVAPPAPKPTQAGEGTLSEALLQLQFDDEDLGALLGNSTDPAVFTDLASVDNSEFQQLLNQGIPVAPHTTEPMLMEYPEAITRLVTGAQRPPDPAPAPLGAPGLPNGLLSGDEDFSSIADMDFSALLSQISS
Chain of Transcription factor p65 (Homo sapiens) (Q04206 whole entry): as the sequence (Q04206 whole entry, looked up) above

CC(=O)N[C@@H](C(=O)O)C(C)(C)SN=O
active: inhibition [1] | inhibition [2] | inhibition [3] | inhibition [4] | inhibition [5] | inhibition [6] | Activity [7]

Cn1c2ccccc2c2c3c(c4c5ccccc5n(CCC#N)c4c21)CNC3=O
active: inhibition [8]

Reference: ChEMBL document CHEMBL5223073, “Andrographolide suppresses cisplatin-induced endothelial hyperpermeability through activation of PI3K/Akt and eNOS -derived nitric oxide” (Bioorg Med Chem, 2020)
